Results: patent US20250186324A1, “SYNERGISTIC SKIN DEPIGMENTING COSMETIC COMPOSITION” (priority 2022, published 2025)

Key:
[1] = system: Wnt pathway; assay: Wnt pathway in melanocytes: melanogenesis-regulating gene expression after BIO stimulation (qPCR); type: cell-based, human; conditions: 0.1 μM BIO; 0.5 and 5 μM apigenin or 10 and 25 μM phloretin; 24 hours; genes TYRP1, DCT, PAX3, PMEL17
Protocol: After the treatment, the RNA was extracted (Norgen, #17200) and a real-time qPCR was performed (Takara, #R[…]) on the TYRP1, DCT, PAX3 and PMEL17 genes.

[2] = system: DKK1; assay: DKK1 gene expression (real-time qPCR) in dermal fibroblasts; type: cell-based, human; conditions: 10 and 25 μM apigenin, 24 hours
Protocol: (§1) To assess the levels of key pigmentation regulatory markers in fibroblasts, dermal fibroblasts (Promocell, #C-12302) were cultured for 24 hours with the active ingredient apigenin. After the treatment, the RNA was extracted (Norgen, #17200) and real-time qPCR was performed (Takara, #R[…]) on the DKK1 and VEGF genes.

[3] = system: skin hyperpigmentation; conditions: mice treated with UVB; cited from earlier work
[4] = system: SCF pathway; assay: SCF pathway in melanocytes: melanogenesis-regulating gene expression after CBD stimulation (qPCR); type: cell-based, human; conditions: 2.5 μM cannabidiol; 0.5 and 5 μM apigenin or 10 and 25 μM phloretin; 24 hours; genes DCT, PAX3
Protocol: In order to assess the inhibition of the SCF pathway in melanocytes, human epidermal melanocytes were cultured with 2.5 μM cannabidiol (CBD)+0.5 and 5 μM apigenin or 10 and 25 μM phloretin for 24 hours. After the treatment, the RNA was extracted (Norgen, #17200) and a real-time qPCR was performed (Takara, #R[…]) on the DCT and PAX3 genes.

[5] = system: miR-675; assay: miR-675 levels in melanocytes (real-time qPCR); type: cell-based; conditions: human epidermal melanocytes, 0.5 μM apigenin, 24 hours
Protocol: In order to assess the effect of miRNA levels in melanocytes, human epidermal melanocytes were cultured with 0.5 μM apigenin or 10 μM phloretin for 24 hours. After the treatment, the RNA was extracted (Norgen, #17200) and a real-time qPCR was performed (Takara, #638313) on miR-675.

[6] = system: VEGF; assay: VEGF gene expression (real-time qPCR) in dermal fibroblasts; type: cell-based, human; conditions: 10 and 25 μM apigenin, 24 hours
Protocol: as §1

[7] = system: tyrosinase; conditions: spectroscopy and chromatography; cited from earlier work

In the case of `O=c1cc(-c2ccc(O)cc2)oc2cc(O)cc(O)c12` [apigenin, 5,7-dihydroxy-2-(4-hydroxyphenyl)-4H-1-benzopyran-4-one], the “expression of melanogenesis-regulating genes after stimulation with BIO” value [1] is listed as “significantly reduce”, the DKK1 expression [2] is listed as “significantly induces” and the skin hyperpigmentation [3] is listed as “inhibits”. The “expression of the melanogenesis-regulating genes after stimulation with CBD” value [4] was “significantly reduce”, the miR-675 levels [5] was “significantly increasing” and the VEGF expression [6] was “reduces”.
In the case of `O=C(CCc1ccc(O)cc1)c1c(O)cc(O)cc1O` [phloretin, 3-(4-hydroxyphenyl)-1-(2,4,6-trihydroxyphenyl)propane-1-one], the “expression of melanogenesis-regulating genes after stimulation with BIO” value [1] is given as “significantly reduce”, the “expression of the melanogenesis-regulating genes after stimulation with CBD” value [4] is given as “significantly reduce” and the action on tyrosinase [7] is given as “a tyrosinase substrate but also an inhibitor”.
